{"source": "patent US10696637B2", "about": "“Nitrogen-containing heterocyclic compound” (FUJIFILM Corporation, priority 2015, dated 2020)"}
{"test_system": "CXCL10 production", "test": "CXCL10 production inhibition test", "assay_type": "cell-based", "settings": "Endothelial cell; test compound 0.1 μmol/L; human umbilical vein-derived endothelial cells; TNFα 10 ng/mL; supernatant 72 hours after stimulation; ELISA; read-out: Rate of inhibition of CXCL10 production", "protocol": "(CXCL10 Production Inhibition Test)\n0.5×10^4 or 1×10^4 human umbilical vein-derived endothelial cells were suspended in 100 μL of an EGM-2 BulletKit medium (without GA) or a Medium-200 medium supplemented with an EGM-2 SingleQuots kit (without GA), inoculated to a 96-well plate and cultured overnight. 100 μL of a solution of each test compound diluted with the same medium as that used in the inoculation was added to the cultured cells (final concentration of the test compound: 0.1 μmol/L). 1 hour thereafter, TNFα was added thereto at a final concentration of 10 ng/mL. 72 hours after the stimulation, the supernatant was recovered, and the amount of CXCL10 produced in the culture supernatant was determined using an ELISA kit (Peprotech, 900-109).\nThe rate of inhibition was calculated according to the following expression: Rate of inhibition (%)=100−(Amount of CXCL10 produced in the presence of the test compound/Amount of CXCL10 produced in the absence of the test compound)×100", "units": {"inhibition at 0.1 µM": "%"}}
{"smiles": "CCn1c(=O)cc(C2CC2)c2cc(-n3c(=O)cc(C)n3-c3ccccc3)ccc21", "note": "[Example 282a, 4-cyclopropyl-1-ethyl-6-(3-methyl-5-oxo-2-phenyl-2,5-dihydro-1H-pyrazol-1-yl)quinolin-2(1H)-one]", "inhibition at 0.1 µM": "≥ 50"}
{"smiles": "CCn1c(=O)cc(C2CC2)c2cc(-n3c(C)cc(=O)n3-c3ccccc3)ccc21", "note": "[Example 282b, 4-cyclopropyl-1-ethyl-6-(5-methyl-3-oxo-2-phenyl-2,3-dihydro-1H-pyrazol-1-yl)quinolin-2(1H)-one]", "inhibition at 0.1 µM": "≥ 50"}
{"smiles": "CCn1c(=O)cc(C2CC2)c2cc(-c3nc(C)[nH]c3-c3ccccc3)ccc21", "note": "[Example 283, 4-cyclopropyl-1-ethyl-6-(2-methyl-5-phenyl-1H-imidazol-4-yl)quinolin-2(1H)-one]", "inhibition at 0.1 µM": "≥ 50"}
{"smiles": "CCn1c(=O)cc(C2CC2)c2cc(-c3nccnc3-c3ccccc3)ccc21", "note": "[Example 284, 4-cyclopropyl-1-ethyl-6-(3-phenylpyradin-2-yl)quinolin-2(1H)-one]", "inhibition at 0.1 µM": "≥ 50"}
{"smiles": "CCn1c(=O)cc(C2CCC(O)CC2)c2cc(C(=O)N(C)c3ccc(Cl)cc3)ccc21", "note": "(stereo not shown) [Example 286, N-(4-chlorophenyl)-1-ethyl-4-(4-hydroxycyclohexyl)-N-methyl-2-oxo-1,2-dihydroquinoline-6-carboxamide]", "inhibition at 0.1 µM": "≥ 50"}
{"smiles": "CCn1c(=O)cc(C2CCN(C(C)=O)CC2)c2cc(C(=O)N(C)c3ccc(C)cc3)ccc21", "note": "[Example 290, 4-(1-acetylpiperidin-4-yl)-1-ethyl-N-methyl-N-(4-methylphenyl)-2-oxo-1,2-dihydroquinoline-6-carboxamide]", "inhibition at 0.1 µM": "≥ 50"}
{"smiles": "CCn1c(=O)cc(C)c2cc(-c3cccnc3-c3ccccc3)ccc21", "note": "[Example 291, 1-ethyl-4-methyl-6-(2-phenylpyridin-3-yl)quinolin-2(1H)-one]", "inhibition at 0.1 µM": "≥ 50"}
{"smiles": "CCn1c(=O)cc(C2CCN(C)CC2)c2cc(C(=O)N(C)c3ccc(C)c(F)c3)ccc21", "note": "[Example 292, 1-ethyl-N-(3-fluoro-4-methylphenyl)-N-methyl-4-(1-methylpiperidin-4-yl)-2-oxo-1,2-dihydroquinoline-6-carboxamide]", "inhibition at 0.1 µM": "≥ 50"}
{"smiles": "CCn1c(=O)cc(C2CCN(C)CC2)c2cc(C(=O)N(C)c3ccc(C)c(Cl)c3)ccc21", "note": "[Example 293, N-(3-chloro-4-methylphenyl)-1-ethyl-N-methyl-4-(1-methylpiperidin-4-yl)-2-oxo-1,2-dihydroquinoline-6-carboxamide]", "inhibition at 0.1 µM": "≥ 50"}
{"smiles": "CCn1c(=O)cc(C2CCN(C)CC2)c2cc(C(=O)N(C)c3ccc(C)c(C)c3)ccc21", "note": "[Example 294, N-(3,4-dimethylphenyl)-1-ethyl-N-methyl-4-(1-methylpiperidin-4-yl)-2-oxo-1,2-dihydroquinoline-6-carboxamide]", "inhibition at 0.1 µM": "≥ 50"}
